From patent publication US8530648B2, “Diaza-spiro[5.5]undecanes” (Novartis AG, priority 2009, dated 2013)
pKd, pKi: −log10 of the molar value.

Legend:
hOx1R [1] = target: T1, hOx1R (Homo sapiens (Human), UniProt O43613); experiment: Calcium accumulation in cells (FLIPR), hOx1R; format: cell-based; conditions: for pKi: inhibition of orexin A induced calcium accumulation, Cheng and Prusoff correction; for inhibition at 10 µM: measured at a concentration of 10 μM of compound
Procedure, shortened: (§1)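 Cells expressing human orexin 1 or 2 receptor, serum-deprived overnight, loaded with Fluo-4-AM (2 μM) plus 0.1 mM probenecid, pH 7.4 HEPES buffer with 1% BSA.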

hOx1R [2] = target: T1, hOx1R; experiment: Radioligand binding assay, [3H]-SB649868, hOx1R; conditions: radioligand [3H]-SB649868, competition
Description: (§2) For crude cell membrane preparations, cells (CHO, Chinese hamster ovary or HEK, human embryonic kidney) expressing human orexin 1 or human orexin 2 receptors, were washed with HEPES (10 mM, pH 7.5), scraped off the culture plates with the same buffer, and centrifuged at 4° C. for 5 min at 2500×g. The cell pellet was either stored at −80° C. or used directly. Before the experiments, cell membranes were re-suspended in binding assay buffer (10 mM HEPES, 0.5% (w/v) bovine serum albumin, pH 7.5) by homogenisation with a Polytron homogeniser at 50 Hz for 20 s. Cell membranes were also used as made available by commercial providers.
(§3) Bound radioactivity was measured, and data were analysed with the program XLFIT or Graphpad Prism. Protein concentration was determined according to the Bradford/BioRad Protein Assay Kit.
(§4) In competition experiments, cell homogenates (150 μl) were incubated in assay buffer (10 mM HEPES, pH 7.5, 0.5% (w/v) bovine serum albumin, 5 mM MgCl2, 1 mM CaCl2, and tween 0.05%) for 1 h at room temperature with about 1 nM of the radioligand [^3H]-SB649868, 66 Ci/mmole, 50 μl), and with various concentrations of compounds of the invention (50 μl) in triplicates; non-specific binding was determined in the presence of almorexant (10 μM).

hOx2R [3] = target: T2, hOx2R (Homo sapiens (Human), UniProt O43614); experiment: Calcium accumulation in cells (FLIPR), hOx2R; format: cell-based; conditions: for pKi: inhibition of orexin A induced calcium accumulation, Cheng and Prusoff correction; for inhibition at 10 µM: measured at a concentration of 10 μM of compound
T2 sequence (O43614 whole entry): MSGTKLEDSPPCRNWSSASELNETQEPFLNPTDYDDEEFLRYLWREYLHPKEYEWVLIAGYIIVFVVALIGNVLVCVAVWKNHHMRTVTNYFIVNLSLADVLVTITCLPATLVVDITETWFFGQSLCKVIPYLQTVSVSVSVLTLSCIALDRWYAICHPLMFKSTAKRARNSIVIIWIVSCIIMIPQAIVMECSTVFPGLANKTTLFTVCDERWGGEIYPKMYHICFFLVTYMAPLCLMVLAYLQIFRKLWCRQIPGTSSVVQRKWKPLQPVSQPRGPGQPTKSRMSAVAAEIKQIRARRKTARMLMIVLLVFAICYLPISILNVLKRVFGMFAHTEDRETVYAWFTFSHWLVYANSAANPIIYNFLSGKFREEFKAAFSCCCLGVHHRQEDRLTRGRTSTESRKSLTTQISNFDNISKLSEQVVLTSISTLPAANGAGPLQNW
Procedure, shortened: as §1

hOx2R [4] = target: T2, hOx2R; experiment: Radioligand binding assay, [3H]-SB649868, hOx2R; conditions: radioligand [3H]-SB649868, competition
Description: as §2, §3, §4

T1 sequence (O43613 whole entry): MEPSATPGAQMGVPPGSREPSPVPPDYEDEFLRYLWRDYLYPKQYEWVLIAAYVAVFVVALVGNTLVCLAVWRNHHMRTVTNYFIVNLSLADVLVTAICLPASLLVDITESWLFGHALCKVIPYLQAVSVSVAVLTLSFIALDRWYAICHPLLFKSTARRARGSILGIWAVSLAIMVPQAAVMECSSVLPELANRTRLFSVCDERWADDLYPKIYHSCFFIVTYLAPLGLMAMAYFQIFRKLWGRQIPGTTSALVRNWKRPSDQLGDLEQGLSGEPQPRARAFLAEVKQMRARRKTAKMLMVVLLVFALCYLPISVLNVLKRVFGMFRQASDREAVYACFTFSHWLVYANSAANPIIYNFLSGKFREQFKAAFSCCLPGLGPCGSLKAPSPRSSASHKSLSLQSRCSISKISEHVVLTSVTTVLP

SMILES: Cc1noc(-c2ccccc2CN2CCCC3(CCN(c4cnc5ccccc5n4)CC3)C2=O)n1 [Example 39, 2-(2-(3-methyl-1,2,4-oxadiazol-5-yl)benzyl)-9-(quinoxalin-2-yl)-2,9-diazaspiro[5.5]undecan-1-one]
- pKi (hOx1R [1]): 5.85
- pKd (hOx1R [2]): 5.56
- pKi (hOx2R [3]): 7.60
- pKd (hOx2R [4]): 6.61

SMILES: O=C1CCCC2(CCN(c3cnc4ccccc4n3)CC2)N1Cc1c[nH]c2ccccc12 [Example 43, 1-((1H-indol-3-yl)methyl)-9-(quinoxalin-2-yl)-1,9-diazaspiro[5.5]undecan-2-one]
- pKi (hOx1R [1]): 6.63
- pKd (hOx1R [2]): 6.69
- pKi (hOx2R [3]): 7.33
- pKd (hOx2R [4]): 6.71

SMILES: Cn1ccc2c(CN3C(=O)CCCC34CCN(c3cnc5ccccc5n3)CC4)cccc21 [Example 44, 1-((1-methyl-1H-indol-4-yl)methyl)-9-(quinoxalin-2-yl)-1,9-diazaspiro[5.5]undecan-2-one]
- pKi (hOx1R [1]): 7.19
- pKd (hOx1R [2]): 7.25
- pKi (hOx2R [3]): 7.32
- pKd (hOx2R [4]): 6.90

SMILES: O=C1N(Cc2cccc(-n3ccnn3)c2)CCCC12CCN(c1cnc3ccccc3n1)CC2 [Example 46, 2-(3-(1H-1,2,3-triazol-1-yl)benzyl)-9-(quinoxalin-2-yl)-2,9-diazaspiro[5.5]undecan-1-one]
- pKi (hOx1R [1]): 5.96
- pKd (hOx1R [2]): 5.89
- pKi (hOx2R [3]): 6.61
- pKd (hOx2R [4]): 6.33

SMILES: O=C1N(Cc2cccc(-n3nccn3)c2)CCCC12CCN(c1cnc3ccccc3n1)CC2 [Example 47, 2-(3-(2H-1,2,3-triazol-2-yl)benzyl)-9-(quinoxalin-2-yl)-2,9-diazaspiro[5.5]undecan-1-one]
- pKi (hOx1R [1]): 6.80
- pKd (hOx1R [2]): 6.50
- pKi (hOx2R [3]): 7.89
- pKd (hOx2R [4]): 7.47

SMILES: O=C1N(Cc2c[nH]c3ccccc23)CCCC12CCN(c1cnc3ccccc3c1)CC2 [Example 48, 2-((1H-indol-3-yl)methyl)-9-(quinolin-3-yl)-2,9-diazaspiro[5.5]undecan-1-one]
- pKi (hOx1R [1]): 5.98
- pKd (hOx1R [2]): 5.74
- pKi (hOx2R [3]): 7.49
- pKd (hOx2R [4]): 6.83

SMILES: O=C1N(Cc2ccccc2-n2nccn2)CCCC12CCN(c1cnc3ccccc3n1)CC2 [Example 49, 2-(2-(2H-1,2,3-triazol-2-yl)benzyl)-9-(quinoxalin-2-yl)-2,9-diazaspiro[5.5]undecan-1-one]
- pKi (hOx1R [1]): 5.68
- pKd (hOx1R [2]): 5.49
- pKi (hOx2R [3]): 7.41
- pKd (hOx2R [4]): 6.94

SMILES: O=C1N(Cc2cccc(-n3cccn3)c2)CCCC12CCN(c1cnc3ccccc3n1)CC2 [Example 60, 2-(3-(1H-pyrazol-1-yl)benzyl)-9-(quinoxalin-2-yl)-2,9-diazaspiro[5.5]undecan-1-one]
- pKi (hOx1R [1]): 6.41
- pKd (hOx1R [2]): 6.14
- pKi (hOx2R [3]): 7.31
- pKd (hOx2R [4]): 6.72

SMILES: O=C1N(Cc2cccc(-c3ncccn3)c2)CCCC12CCN(c1cnc3ccccc3n1)CC2 [Example 61, 2-(3-(pyrimidin-2-yl)benzyl)-9-(quinoxalin-2-yl)-2,9-diazaspiro[5.5]undecan-1-one]
- pKi (hOx1R [1]): 6.43
- pKd (hOx1R [2]): 5.69
- pKi (hOx2R [3]): 7.21
- pKd (hOx2R [4]): 6.40

SMILES: O=C1N(Cc2ccnc(-n3cccn3)c2)CCCC12CCN(c1cnc3ccccc3n1)CC2 [Example 63, 2-((2-(1H-pyrazol-1-yl)pyridin-4-yl)methyl)-9-(quinoxalin-2-yl)-2,9-diazaspiro[5.5]undecan-1-one]
- pKi (hOx1R [1]): 6.05
- pKd (hOx1R [2]): 5.42
- pKi (hOx2R [3]): 7.08
- pKd (hOx2R [4]): 6.04

SMILES: O=C1N(Cc2cccc(-c3cnccn3)c2)CCCC12CCN(c1cnc3ccccc3n1)CC2 [Example 65, 2-(3-(pyrazin-2-yl)benzyl)-9-(quinoxalin-2-yl)-2,9-diazaspiro[5.5]undecan-1-one]
- pKi (hOx1R [1]): 6.45
- pKd (hOx1R [2]): 5.73
- pKi (hOx2R [3]): 7.64
- pKd (hOx2R [4]): 6.21

SMILES: Cc1noc(-c2cccc(CN3CCCC4(CCN(c5cnc6ccccc6n5)CC4)C3=O)c2)n1 [Example 104, 2-(3-(3-methyl-1,2,4-oxadiazol-5-yl)benzyl)-9-(quinoxalin-2-yl)-2,9-diazaspiro[5.5]undecan-1-one]
- pKi (hOx2R [3]): 6.97
- pKd (hOx2R [4]): 5.86

SMILES: O=C1N(Cc2ccccc2-c2ncccn2)CCCC12CCN(c1cnc3ccccc3n1)CC2 [Example 151, 2-(2-(pyrimidin-2-yl)benzyl)-9-(quinoxalin-2-yl)-2,9-diazaspiro[5.5]undecan-1-one]
- inhibition at 10 µM (hOx1R [1]): 14%
- pKi (hOx2R [3]): 6.17

SMILES: Cc1ccc2nc(N3CCC4(CCCN(Cc5c[nH]c6ccccc56)C4=O)CC3)sc2c1 [Example 153, 2-((1H-indol-3-yl)methyl)-9-(6-methylbenzo[d]thiazol-2-yl)-2,9-diazaspiro[5.5]undecan-1-one]
- inhibition at 10 µM (hOx1R [1]): 22%
- inhibition at 10 µM (hOx2R [3]): 35%

SMILES: O=C1N(Cc2c[nH]c3ccccc23)CCCC12CCN(c1nccc(-c3ccccc3)n1)CC2 [Example 154, 2-((1H-indol-3-yl)methyl)-9-(4-phenylpyrimidin-2-yl)-2,9-diazaspiro[5.5]undecan-1-one]
- pKi (hOx1R [1]): 6.19
- pKi (hOx2R [3]): 6.94

SMILES: O=C1N(Cc2c[nH]c3ccccc23)CCCC12CCN(c1ncnc3[nH]ccc13)CC2 [Example 155, 2-((1H-indol-3-yl)methyl)-9-(7H-pyrrolo[2,3-d]pyrimidin-4-yl)-2,9-diazaspiro[5.5]undecan-1-one]
- pKi (hOx1R [1]): 5.82
- pKi (hOx2R [3]): 6.62

SMILES: Cc1nnc(N2CCC3(CCCN(Cc4c[nH]c5ccccc45)C3=O)CC2)c2ccccc12 [Example 157, 2-((1H-indol-3-yl)methyl)-9-(4-methylphthalazin-1-yl)-2,9-diazaspiro[5.5]undecan-1-one]
- pKi (hOx1R [1]): 5.77
- pKi (hOx2R [3]): 6.49

SMILES: O=C1N(Cc2c[nH]c3ccccc23)CCCC12CCN(c1cc(-n3ccnc3)ncn1)CC2 [Example 158, 9-(6-(1H-imidazo-1-yl)pyrimidin-4-yl)-2-((1H-indol-3-yl)methyl)-2,9-diazaspiro[5.5]undecan-1-one]
- inhibition at 10 µM (hOx1R [1]): 21%
- pKi (hOx2R [3]): 6.26

SMILES: COc1ccc2[nH]c(N3CCC4(CCCN(Cc5c[nH]c6ccccc56)C4=O)CC3)nc2c1 [Example 159, 2-((1H-indol-3-yl)methyl)-9-(5-methoxy-1H-benzo[d]imidazol-2-yl)-2,9-diazaspiro[5.5]undecan-1-one]
- inhibition at 10 µM (hOx1R [1]): 24%
- pKi (hOx2R [3]): 6.13

SMILES: O=C1N(Cc2c[nH]c3ccccc23)CCCC12CCN(c1ccc(-c3nccs3)cn1)CC2 [Example 161, 2-((1H-indol-3-yl)methyl)-9-(5-(thiazol-2-yl)pyridin-2-yl)-2,9-diazaspiro[5.5]undecan-1-one]
- inhibition at 10 µM (hOx1R [1]): 40%
- pKi (hOx2R [3]): 6.15

SMILES: Cc1ccc2[nH]c(N3CCC4(CCCN(Cc5c[nH]c6ccccc56)C4=O)CC3)nc2c1 [Example 163, 2-((1H-indol-3-yl)methyl)-9-(5-methyl-1H-benzo[d]imidazol-2-yl)-2,9-diazaspiro[5.5]undecan-1-one]
- inhibition at 10 µM (hOx1R [1]): 23%
- pKi (hOx2R [3]): 6.32

SMILES: O=C1N(Cc2c[nH]c3ccccc23)CCCC12CCN(c1cc(-c3ccccc3)ncn1)CC2 [Example 165, 2-((1H-indol-3-yl)methyl)-9-(6-phenylpyrimidin-4-yl)-2,9-diazaspiro[5.5]undecan-1-one]
- pKi (hOx1R [1]): 6.33
- pKi (hOx2R [3]): 6.94

SMILES: O=C1N(Cc2c[nH]c3ccccc23)CCCC12CCN(c1nccc(-c3ccncc3)n1)CC2 [Example 166, 2-((1H-indol-3-yl)methyl)-9-(4-(pyridin-4-yl)pyrimidin-2-yl)-2,9-diazaspiro[5.5]undecan-1-one]
- pKi (hOx1R [1]): 5.93
- pKi (hOx2R [3]): 6.81

SMILES: Cc1nc2ccccc2nc1N1CCC2(CCCN(Cc3c[nH]c4ccccc34)C2=O)CC1 [Example 170, 2-((1H-indol-3-yl)methyl)-9-(3-methylquinoxalin-2-yl)-2,9-diazaspiro[5.5]undecan-1-one]
- pKi (hOx1R [1]): 5.74
- pKi (hOx2R [3]): 6.27

SMILES: O=C1N(Cc2c[nH]c3ccccc23)CCCC12CCN(c1nnc(-c3ccccc3)s1)CC2 [Example 171, 2-((1H-indol-3-yl)methyl)-9-(5-phenyl-1,3,4-thiadiazol-2-yl)-2,9-diazaspiro[5.5]undecan-1-one]
- pKi (hOx1R [1]): 5.61
- pKi (hOx2R [3]): 6.10

SMILES: O=C1N(Cc2c[nH]c3ccccc23)CCCC12CCN(c1nc(-c3ccc(F)cc3)cs1)CC2 [Example 172, 2-((1H-indol-3-yl)methyl)-9-(4-(4-fluorophenyl)thiazol-2-yl)-2,9-diazaspiro[5.5]undecan-1-one]
- inhibition at 10 µM (hOx1R [1]): 14%
- inhibition at 10 µM (hOx2R [3]): 20%

SMILES: Cc1nn(-c2ccccc2)nc1CN1CCCC2(CCN(c3cnc4ccccc4n3)CC2)C1=O [Example 175, 2-((5-methyl-2-phenyl-2H-1,2,3-triazol-4-yl)methyl)-9-(quinoxalin-2-yl)-2,9-diazaspiro[5.5]undecan-1-one]
- inhibition at 10 µM (hOx1R [1]): < 10%
- inhibition at 10 µM (hOx2R [3]): 12%

SMILES: CC(C)c1nc(CN2CCCC3(CCN(c4cnc5ccccc5n4)CC3)C2=O)co1 [Example 176, 2-((2-isopropyloxazol-4-yl)methyl)-9-(quinoxalin-2-yl)-2,9-diazaspiro[5.5]undecan-1-one]
- inhibition at 10 µM (hOx1R [1]): < 10%
- inhibition at 10 µM (hOx2R [3]): < 10%
